This note sets out measurements from patent US8951541B2, “Method of modifying dissolution rate of particles by addition of hydrophobic nanoparticles” (3M Innovative Properties Company, priority 2010, dated 2015).

The data set in a line: Rate of dissolution of acetaminophen and acetaminophen/nanoparticle mixtures in DIW by UV/Vis absorbance at 243 nm. Type of data set: physicochemical. As to conditions: 0.013 g in 1000 mL DIW. On the procedure:
The following procedure (similar to USP30-NF 25, Mar. 17, 2008) was used to measure the rate and intensity of dissolution of acetaminophen and acetaminophen/nanoparticle mixtures in Millipore H2O (i.e., DIW).
Three samples of acetaminophen were weighed out. One sample was used as a control sample (Comparative K). A pre-determined amount of surface modified nanoparticles were added to each of the other samples. Sample 14 was combined with 1 weight percent nanoparticles (0.013 g) and sample 15 was combined with 0.5 weight percent nanoparticles (0.0065 g). Each blended sample was prepared by adding the nanoparticles to the acetaminophen. […]
Each blended sample was then measured separately by adding to different glass beakers, each of which contained 1000 mL of DIW and a magnetic stir-bar. […] 0.013 g of the blended samples were measured out and added to the stirred DIW.
While the acetaminophen was being dissolved in the DIW, 1.5 mL samples of the DIW and acetaminophen mixtures were removed every two minutes by pipette. The UV/Vis spectra of the samples were immediately measured using a UV/Vis spectrophotometer (obtained from PerkinElmer, Waltham, Mass., under the trade designation “LAMBDA 35 UV/VIS SPECTROPHOTOMETER), specifically focusing on the 243 nm absorbance.
This was determined to be the final measured value needed for subsequent experiments. […]

For the compound `CC(=O)Nc1ccc(O)cc1` [Comparative K, acetaminophen], the “absorbance intensity at 243 nm (final measured value)” value (stirred, plateau value) is listed as “approximately 0.86”. Further, the Slope (slope between first two time points: change in absorbance at 243 nm/change in time, in seconds) is on record as 0.0029.
